Experimental data taken from patent US20140205537A1, “LRRK2 INHIBITORS” (ZENOBIA THERAPEUTICS, INC., priority 2011, published 2014).

Assays:
PHKG2 = PHKG2 (Homo sapiens, UniProt P15735); test: Kinase selectivity panel: PHKG2; format: biochemical
P70S6K = P70S6K (Homo sapiens, UniProt P23443); test: Kinase selectivity panel: P70S6K; format: biochemical
EPHA2 = EPHA2 (Homo sapiens, UniProt P29317); test: Kinase selectivity panel: EPHA2; format: biochemical
INSR = INSR (Homo sapiens, UniProt P06213); test: Kinase selectivity panel: INSR; format: biochemical
TRKA = TRKA (Homo sapiens, UniProt P04629); test: Kinase selectivity panel: TRKA; format: biochemical
SRC = SRC (Homo sapiens, UniProt P12931); test: Kinase selectivity panel: SRC; format: biochemical
SRC, sequence (P12931 whole entry, species assumed): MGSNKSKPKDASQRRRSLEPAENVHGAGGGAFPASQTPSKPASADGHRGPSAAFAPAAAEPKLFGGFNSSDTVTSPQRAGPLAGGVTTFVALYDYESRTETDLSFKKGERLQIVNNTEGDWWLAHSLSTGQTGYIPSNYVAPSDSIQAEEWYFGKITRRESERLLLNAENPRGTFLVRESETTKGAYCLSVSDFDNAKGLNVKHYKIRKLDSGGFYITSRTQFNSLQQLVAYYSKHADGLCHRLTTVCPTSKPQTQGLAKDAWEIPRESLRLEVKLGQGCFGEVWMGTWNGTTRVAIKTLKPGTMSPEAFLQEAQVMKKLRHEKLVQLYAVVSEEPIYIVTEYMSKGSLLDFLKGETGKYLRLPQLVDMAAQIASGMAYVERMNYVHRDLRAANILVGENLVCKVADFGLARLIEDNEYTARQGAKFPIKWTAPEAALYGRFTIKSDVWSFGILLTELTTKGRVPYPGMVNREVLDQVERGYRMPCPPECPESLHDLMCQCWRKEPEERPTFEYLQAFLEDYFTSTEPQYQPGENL

KIT = KIT (Homo sapiens, UniProt P10721); test: Kinase selectivity panel: KIT; format: biochemical
KIT, sequence (P10721 26-976, species assumed): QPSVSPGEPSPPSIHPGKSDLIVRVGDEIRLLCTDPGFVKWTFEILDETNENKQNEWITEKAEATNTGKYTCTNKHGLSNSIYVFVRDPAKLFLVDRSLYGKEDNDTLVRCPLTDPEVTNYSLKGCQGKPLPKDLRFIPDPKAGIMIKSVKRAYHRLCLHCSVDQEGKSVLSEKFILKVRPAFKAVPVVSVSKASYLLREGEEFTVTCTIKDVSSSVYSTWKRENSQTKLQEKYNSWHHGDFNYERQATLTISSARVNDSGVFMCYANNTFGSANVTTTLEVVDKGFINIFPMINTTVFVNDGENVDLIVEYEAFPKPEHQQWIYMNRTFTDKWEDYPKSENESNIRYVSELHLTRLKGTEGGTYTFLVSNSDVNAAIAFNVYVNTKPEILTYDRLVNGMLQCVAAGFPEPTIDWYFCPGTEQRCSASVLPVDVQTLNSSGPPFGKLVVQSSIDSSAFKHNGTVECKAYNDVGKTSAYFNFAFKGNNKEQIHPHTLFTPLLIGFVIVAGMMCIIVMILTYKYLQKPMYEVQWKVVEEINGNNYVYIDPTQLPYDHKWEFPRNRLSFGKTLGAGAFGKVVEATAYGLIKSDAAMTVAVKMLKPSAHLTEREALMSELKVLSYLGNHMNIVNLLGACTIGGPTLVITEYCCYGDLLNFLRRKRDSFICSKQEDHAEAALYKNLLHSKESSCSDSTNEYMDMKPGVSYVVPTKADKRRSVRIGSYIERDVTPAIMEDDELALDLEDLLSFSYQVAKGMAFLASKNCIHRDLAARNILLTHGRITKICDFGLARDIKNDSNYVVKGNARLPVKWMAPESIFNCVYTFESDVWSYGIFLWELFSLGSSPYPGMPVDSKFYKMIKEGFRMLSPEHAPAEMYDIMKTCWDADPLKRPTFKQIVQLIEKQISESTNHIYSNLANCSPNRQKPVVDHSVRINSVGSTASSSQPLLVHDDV

MLK1 = MLK1 (Homo sapiens, UniProt P80192); test: Kinase selectivity panel: MLK1; format: biochemical
MLK1, sequence (P80192 whole entry, species assumed): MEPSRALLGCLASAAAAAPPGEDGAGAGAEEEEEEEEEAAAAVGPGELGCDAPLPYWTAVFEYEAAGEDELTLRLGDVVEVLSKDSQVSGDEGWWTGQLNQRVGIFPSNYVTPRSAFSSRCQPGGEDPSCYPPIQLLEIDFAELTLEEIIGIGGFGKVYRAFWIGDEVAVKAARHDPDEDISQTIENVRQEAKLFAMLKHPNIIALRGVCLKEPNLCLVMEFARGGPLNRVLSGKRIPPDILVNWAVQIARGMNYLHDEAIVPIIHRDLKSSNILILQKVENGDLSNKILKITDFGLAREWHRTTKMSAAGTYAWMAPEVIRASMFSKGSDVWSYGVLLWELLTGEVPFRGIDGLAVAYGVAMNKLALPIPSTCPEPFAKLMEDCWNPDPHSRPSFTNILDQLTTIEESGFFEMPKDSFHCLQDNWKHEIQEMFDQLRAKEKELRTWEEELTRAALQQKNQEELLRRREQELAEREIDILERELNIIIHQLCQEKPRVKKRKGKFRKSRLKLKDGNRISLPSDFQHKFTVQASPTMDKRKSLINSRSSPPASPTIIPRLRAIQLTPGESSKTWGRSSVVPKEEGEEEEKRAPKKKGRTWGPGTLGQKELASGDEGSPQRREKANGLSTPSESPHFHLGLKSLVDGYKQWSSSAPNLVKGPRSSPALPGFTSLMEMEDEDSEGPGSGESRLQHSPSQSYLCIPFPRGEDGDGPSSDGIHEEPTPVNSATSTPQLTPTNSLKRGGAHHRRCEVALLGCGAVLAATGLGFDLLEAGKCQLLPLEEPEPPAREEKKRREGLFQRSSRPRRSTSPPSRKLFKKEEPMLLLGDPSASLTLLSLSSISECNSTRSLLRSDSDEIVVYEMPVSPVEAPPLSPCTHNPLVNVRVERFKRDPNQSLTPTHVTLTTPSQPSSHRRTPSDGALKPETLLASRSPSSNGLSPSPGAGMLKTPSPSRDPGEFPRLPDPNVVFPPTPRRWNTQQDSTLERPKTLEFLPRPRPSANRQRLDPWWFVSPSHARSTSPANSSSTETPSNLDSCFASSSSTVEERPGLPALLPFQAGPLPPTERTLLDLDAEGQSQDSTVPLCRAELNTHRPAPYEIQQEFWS

CK1 gamma2 = CK1 gamma2 (Homo sapiens, UniProt P78368); test: Kinase selectivity panel: CK1 gamma2; format: biochemical
CK1 gamma2, sequence (P78368 whole entry): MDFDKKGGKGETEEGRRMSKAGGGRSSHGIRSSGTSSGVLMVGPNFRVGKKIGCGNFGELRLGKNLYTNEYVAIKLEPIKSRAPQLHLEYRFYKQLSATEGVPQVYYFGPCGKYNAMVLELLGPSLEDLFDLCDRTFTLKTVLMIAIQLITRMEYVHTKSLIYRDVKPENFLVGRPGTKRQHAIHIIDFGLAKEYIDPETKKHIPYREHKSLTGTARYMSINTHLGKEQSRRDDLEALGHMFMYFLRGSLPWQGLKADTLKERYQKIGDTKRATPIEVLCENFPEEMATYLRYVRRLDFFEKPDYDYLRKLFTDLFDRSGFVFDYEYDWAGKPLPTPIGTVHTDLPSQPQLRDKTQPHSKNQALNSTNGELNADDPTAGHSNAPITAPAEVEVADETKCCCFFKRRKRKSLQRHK

BTK = BTK (Homo sapiens, UniProt Q06187); test: Kinase selectivity panel: BTK; format: biochemical
TAK1-TAB1 = TAK1-TAB1 (Homo sapiens, UniProt O43318); test: Kinase selectivity panel: TAK1-TAB1; format: biochemical
HGK = HGK (Homo sapiens, UniProt O95819); test: Kinase selectivity panel: HGK; format: biochemical
cMet = cMet (Homo sapiens, UniProt P08581); test: Kinase selectivity panel: cMet; format: biochemical
PLK1 = PLK1 (Homo sapiens, UniProt P53350); test: Kinase selectivity panel: PLK1; format: biochemical
KDR = KDR (Homo sapiens, UniProt P35968); test: Kinase selectivity panel: KDR; format: biochemical
G2019S LRRK2 = G2019S LRRK2 (Homo sapiens, UniProt Q5S007, G2019S); test: G2019S LRRK2 inhibition (Invitrogen SelectScreen / TR-FRET biochemical assay); design: The protein construct used in the assay is GST tagged 969-2527; GST; purchased Invitrogen; settings: numeric value
G2019S LRRK2, sequence (Q5S007 969-2527 G2019S): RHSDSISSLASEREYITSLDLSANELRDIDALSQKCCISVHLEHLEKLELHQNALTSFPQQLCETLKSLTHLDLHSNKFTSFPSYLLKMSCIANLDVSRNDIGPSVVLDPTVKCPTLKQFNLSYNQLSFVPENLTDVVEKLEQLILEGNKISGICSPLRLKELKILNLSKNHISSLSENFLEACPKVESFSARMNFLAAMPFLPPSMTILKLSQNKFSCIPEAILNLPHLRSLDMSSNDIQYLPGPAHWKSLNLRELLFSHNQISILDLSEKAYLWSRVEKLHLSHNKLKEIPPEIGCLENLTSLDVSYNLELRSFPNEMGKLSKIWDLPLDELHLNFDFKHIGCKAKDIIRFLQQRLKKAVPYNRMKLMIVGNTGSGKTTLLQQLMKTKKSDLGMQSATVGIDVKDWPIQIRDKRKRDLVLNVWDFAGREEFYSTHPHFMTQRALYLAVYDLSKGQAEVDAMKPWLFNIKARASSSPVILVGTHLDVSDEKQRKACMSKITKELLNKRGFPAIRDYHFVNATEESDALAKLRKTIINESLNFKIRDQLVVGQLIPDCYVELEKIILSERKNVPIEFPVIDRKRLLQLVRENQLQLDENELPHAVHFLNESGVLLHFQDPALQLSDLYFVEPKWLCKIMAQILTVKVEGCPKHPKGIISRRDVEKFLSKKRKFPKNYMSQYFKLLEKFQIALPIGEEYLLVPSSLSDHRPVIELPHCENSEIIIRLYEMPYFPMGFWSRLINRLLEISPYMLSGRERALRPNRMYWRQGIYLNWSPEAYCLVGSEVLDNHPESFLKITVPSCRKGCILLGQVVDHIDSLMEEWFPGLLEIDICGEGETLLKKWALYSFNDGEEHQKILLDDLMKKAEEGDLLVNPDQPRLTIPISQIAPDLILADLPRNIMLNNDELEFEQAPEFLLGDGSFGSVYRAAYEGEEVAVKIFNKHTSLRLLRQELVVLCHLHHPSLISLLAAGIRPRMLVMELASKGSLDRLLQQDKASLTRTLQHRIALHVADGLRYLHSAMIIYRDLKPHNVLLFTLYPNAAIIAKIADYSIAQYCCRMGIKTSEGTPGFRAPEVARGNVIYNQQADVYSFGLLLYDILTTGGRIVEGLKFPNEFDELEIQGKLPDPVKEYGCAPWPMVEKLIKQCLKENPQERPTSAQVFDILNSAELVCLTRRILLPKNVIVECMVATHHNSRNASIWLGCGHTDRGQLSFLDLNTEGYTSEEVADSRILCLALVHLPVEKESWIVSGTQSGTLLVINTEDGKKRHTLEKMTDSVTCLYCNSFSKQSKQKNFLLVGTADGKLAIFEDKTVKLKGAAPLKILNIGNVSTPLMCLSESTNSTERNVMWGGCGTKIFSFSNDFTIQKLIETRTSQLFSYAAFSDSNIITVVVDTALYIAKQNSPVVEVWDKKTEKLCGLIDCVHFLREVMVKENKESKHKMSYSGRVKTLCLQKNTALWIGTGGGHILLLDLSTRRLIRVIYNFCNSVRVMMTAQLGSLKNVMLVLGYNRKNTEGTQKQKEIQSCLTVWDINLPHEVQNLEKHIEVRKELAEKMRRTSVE
Description: IC50s were determined using Invitrogen's SelectScreen® Profiling Service for wild type and LRRK2 G2019S. The test compounds were screened in 1% DMSO (final) in the well.
a) % inhibition is measured at one concentration
b) a 10-point titration is run to ensure the kinase is inhibited within an expected IC50 range
Biochemical Assay Protocol:
Compound potency against wild-type and G2019S LRRK2 is measured via TR-FRET. The IC50, the amount of inhibitor required to inhibitor 50% of the protein under the given assay conditions, is determined by varying the amount of compound (500-0.001 uM) by serial dilution with 12-data points per compound, in duplicate. The substrate (Fluorescein-GAGRLGRDKYKTLRQIRQ) and ATP is fixed at 0.8 uM and 57 uM (KmATP), respectively. All assays are run in Corning low volume […] round bottomed plates. The assay is run in 50 mM Tris-HCl pH8.5, 10 mM MgCl2, 0.01% Brij-35, 1 mM EGTA, 2 mMDTT. The TR-FRET assay is an end-point assay where the reaction with protein, substrate, inhibitor and ATP is incubated for 1 hour at room temperature. The compound is pre-incubated with the protein and substrate prior to initiating the reaction with ATP. Phospho-transfer is detected using a Terbium labeled anti-pLRRKtide that binds to phosphorylated substrate creating FRET transfer when excited at 340 nm. Emissions signals are taken for terbium and FRET induced fluorescein at 495 nm and 520 nm, respectively, using a Biotek Synergy 2 spectrophotometer. The dose response is determined by plotting the emission ratio of 520/495 against the log of the inhibitor concentration. The maximum inhibition and non-inhibition controls is run on all plates. Staurosporine is used as the positive inhibition control and DMSO is used as the negative point control. A 12-point dose curve of Staurosporine is run as a dosing control. The IC50 is determined to be the inhibitor concentration at which 50% inhibition is achieved. The protein construct used in the assay is GST tagged 969-2527. The protein is commercially available from Invitrogen.
Alternatively, compounds of formulas (II), (I), (I-A), (I-B), (I-C), (I-D), (I-D-1), (I-D-2), (I-E), (I-F), (I-G), (I-H), (I-I), (I-I-1), (I-I-2), (I-J), (I-K), (I-L), (I-M), (I-N), (I-Z-1), (I-Z-2), (I-Z-2-a), (I-Z-2-b), (I-Z-2-c), (I-Z-2-d), (I-Z-3-a), (I-Z-3-b), (I-Z-3-c), or (I-Z-3-d) were tested using Invitrogen's SelectScreen® Profiling Service for LRRK2 G2019S.

IRAK4 = molecular target: T1, IRAK4 (Homo sapiens, UniProt Q9NWZ3); test: Kinase selectivity panel: IRAK4; format: biochemical
T1 sequence (Q9NWZ3 1-460): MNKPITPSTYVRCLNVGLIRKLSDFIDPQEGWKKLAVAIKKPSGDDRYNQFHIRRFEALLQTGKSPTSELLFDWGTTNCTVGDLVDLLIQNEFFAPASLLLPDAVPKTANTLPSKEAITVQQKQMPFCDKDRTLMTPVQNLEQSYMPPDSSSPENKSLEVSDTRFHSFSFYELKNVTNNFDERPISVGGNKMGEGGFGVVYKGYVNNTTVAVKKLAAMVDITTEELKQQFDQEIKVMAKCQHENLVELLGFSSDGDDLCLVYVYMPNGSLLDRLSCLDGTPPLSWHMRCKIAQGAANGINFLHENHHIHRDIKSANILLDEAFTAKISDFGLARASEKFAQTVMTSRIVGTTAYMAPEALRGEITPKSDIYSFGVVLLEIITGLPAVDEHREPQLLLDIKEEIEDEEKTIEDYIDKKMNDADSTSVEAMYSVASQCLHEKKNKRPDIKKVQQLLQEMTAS

FLT3 = FLT3 (Homo sapiens, UniProt P36888); test: Kinase selectivity panel: FLT3; format: biochemical
PIM1 = PIM1 (Homo sapiens, UniProt P11309); test: Kinase selectivity panel: PIM1; format: biochemical
PIM1, sequence (P11309 whole entry, species assumed): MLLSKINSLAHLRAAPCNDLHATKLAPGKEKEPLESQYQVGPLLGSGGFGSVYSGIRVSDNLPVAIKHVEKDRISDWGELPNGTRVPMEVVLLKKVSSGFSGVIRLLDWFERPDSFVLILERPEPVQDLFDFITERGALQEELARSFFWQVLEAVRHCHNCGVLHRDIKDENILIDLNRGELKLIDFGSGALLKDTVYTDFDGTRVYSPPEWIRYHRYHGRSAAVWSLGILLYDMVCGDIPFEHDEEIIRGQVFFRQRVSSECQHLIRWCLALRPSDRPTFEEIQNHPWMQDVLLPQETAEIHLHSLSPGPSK

In the case of `COc1ccc2c(c1)/C(=C/c1cnc(C3CCOCC3)[nH]1)C(=O)N2` [Compound 18, (3Z)-5-methoxy-3-[(2-tetrahydropyran-4-yl-1H-imidazol-5-yl)methylene]indolin-2-one], the inhibition at 0.1 µM (PHKG2) is reported as 3%, the inhibition at 0.1 µM (P70S6K) is reported as 5% and the inhibition at 0.1 µM (EPHA2) is reported as 2%. For the same compound, the inhibition at 0.1 µM (INSR) was 4%, the inhibition at 0.1 µM (TRKA) was 11% and the inhibition at 0.1 µM (SRC) was 13%. The inhibition at 0.1 µM (KIT) was 4%, the inhibition at 0.1 µM (MLK1) was -17% and the inhibition at 0.1 µM (CK1 gamma2) was 6%. For the same compound, the inhibition at 0.1 µM (BTK) was 4%, the inhibition at 0.1 µM (TAK1-TAB1) was -3% and the inhibition at 0.1 µM (HGK) was -18%. It also gave an inhibition at 0.1 µM (cMet) of 7%, an inhibition at 0.1 µM (PLK1) of 12% and an inhibition at 0.1 µM (KDR) of 1%. For the same compound, the IC50 (G2019S LRRK2) was 5.5 nM, the IC50 (IRAK4) was > 10000 nM and the inhibition at 0.1 µM (IRAK4; @0.1 uM) was -1%. For the same compound, the inhibition at 0.1 µM (FLT3) was 8% and the inhibition at 0.1 µM (PIM1) was -2%.
